Results published in ChEMBL document CHEMBL3627696, “Pontemazines A and B, phenazine derivatives containing a methylamine linkage from Streptomyces sp. UT1123 and their protective effect to HT-22 neuronal cells” (2015).
The source made the active and inactive calls. The calls are words filed in the database; no cut-off is given here.

Key:
[1] = test system: HT-22; assay: Neuroprotective activity against monosodium glutamate-induced cell death in mouse HT22 cells at 5 uM preincubated for 2 hrs followed by monosodium glutamate addition measured after 24 hrs by phase contrast microscopic analysis; assay type: functional, cell-based
[2] = test system: HT-22; assay: Neuroprotective activity against monosodium glutamate-induced cell death in mouse HT22 cells assessed as cell viability at 10 uM preincubated for 2 hrs followed by monosodium glutamate addition measured after 24 hrs by MTT assay (reference value: 50%); assay type: functional; settings: read-out: Activity
[3] = test system: HT-22; assay: Neuroprotective activity against monosodium glutamate-induced cell death in mouse HT22 cells at 10 uM preincubated for 2 hrs followed by monosodium glutamate addition measured after 24 hrs by phase contrast microscopic analysis; assay type: functional, cell-based
[4] = test system: HT-22; assay: Neuroprotective activity against monosodium glutamate-induced cell death in mouse HT22 cells assessed as cell viability at 25 to 50 uM preincubated for 2 hrs followed by monosodium glutamate addition measured after 24 hrs by MTT assay (reference value: 50%); assay type: functional

## COc1ccc(CNc2ccccc2C(N)=O)c2nc3cccc(C(N)=O)c3nc12
[1]
  Activity: inactive
[2]
  viability at 10 µM: 90%
[3]
  Activity: Active

## COc1ccc(CNc2ccccc2C(N)=O)c2nc3cccc(C(=O)O)c3nc12
[1]
  Activity: inactive
[2]
  viability at 10 µM: 90%
[3]
  Activity: Active
[4]
  Activity: >90%
